From patent US20250340671A1, “METHODS AND PHARMACEUTICAL COMPOSITIONS FOR REDUCING THE NEURO[…] OF COCAINE” (University of Cincinnati, priority 2022, published 2025)

Assays:
[1] = system: lever-pressing behavior in rats; assay: Single-dose reinstatement (SDR) of lever-pressing after 12 μmol/kg cocaine; format: in vivo, Male Sprague-Dawley rats; settings: for average difference in latency between vehicle and SCH23390: 10 nmol/kg SCH23390 alone, absence of h2E2; for mean latency of lever-pressing behavior: 0 nmol/kg gave 17.11, FIG. 6; for mean duration of lever-pressing: 0 nmol/kg gave 35.44, FIG. 7
[2] = in vivo; cited from earlier work

CN1CCc2cc(Cl)c(O)cc2[C@@H](c2ccccc2)C1 [SCH23390]
average difference in latency between vehicle and SCH23390 ([1]; FIG. 9): about 2.81 minutes
average difference in latency between vehicle and SCH23390 ([1]; FIG. 9, listed as SCH233390): 2.81 min
average duration of lever-pressing activity ([1]; 10 nmol/kg SCH23390 before SDR, in the presence of h2E2 (4 separate days from day seven after h2E2), FIG. 10): 9.28 min
average decrease in latency versus the prior day (h2E2 alone) ([1]; 10 nmol/kg SCH23390 before SDR, in the presence of h2E2 (from seven days after 360 umol/kg h2E2), FIG. 9): 2.56 min
mean latency of lever-pressing behavior ([1]; SCH23390 alone 10 nmol/kg IV before 12 μmol/kg cocaine SDR): 12.17
mean duration of lever-pressing ([1]; SCH23390 alone 10 nmol/kg): 23.16
mean latency of lever-pressing behavior ([1]; SCH23390 alone 20 nmol/kg IV before 12 μmol/kg cocaine SDR): 5.17
mean duration of lever-pressing ([1]; SCH23390 alone 20 nmol/kg): 5.43
mean latency of lever-pressing behavior ([1]; SCH23390 alone 30 nmol/kg IV before 12 μmol/kg cocaine SDR): 1.72
mean duration of lever-pressing ([1]; SCH23390 alone 30 nmol/kg): 2.05
average latency ([1]; days with 10 nmol/kg SCH23390 in the presence of h2E2, FIG. 8): 9.93 min
t-max [2]: approximately 30 min
